Assay [1] deals with NB7. The assay can be described thus: cells. The assay is classed as functional, cell-based, Homo sapiens. The conditions noted are these: Homo sapiens, NB7.
Description: SANGER: Inhibition of human NB7 cell growth in a cell viability assay.
Assay [2] deals with L-540. As to the kind of experiment: cells. The assay is classed as functional, cell-based, Homo sapiens. The conditions noted are these: Homo sapiens, L-540.
Description: SANGER: Inhibition of human L-540 cell growth in a cell viability assay.
The test system of assay [3] is KP-N-RT-BM-1. As to the kind of experiment: SANGER: Inhibition of human KP-N-RT-BM-1 cell growth in a cell viability assay. It is filed as functional, cell-based.
Assay [4] deals with LC-1F. As to the kind of experiment: cells. It is filed as functional, cell-based, Homo sapiens. The settings on record: Homo sapiens, LC-1F.
Description: SANGER: Inhibition of human LC-1F cell growth in a cell viability assay.
The test system of assay [5] is SKM-1. The assay can be described thus: SANGER: Inhibition of human SKM-1 cell growth in a cell viability assay. The assay is classed as functional, cell-based.
Assay [6] concerns CESS. As to the kind of experiment: SANGER: Inhibition of human CESS cell growth in a cell viability assay. The settings on record: Homo sapiens, CESS. The assay is classed as functional, cell-based.
The subject of assay [7] is ST486. The assay can be described thus: SANGER: Inhibition of human ST486 cell growth in a cell viability assay. It is filed as functional, cell-based. The conditions noted are these: Homo sapiens, ST486.
Assay [8] relates to NCI-H1436. The assay can be described thus: cells. It is filed as functional, cell-based, Homo sapiens. The conditions noted are these: Homo sapiens, NCI-H1436.
Description: SANGER: Inhibition of human NCI-H1436 cell growth in a cell viability assay.
In assay [9] the test system is CP67-MEL. The assay can be described thus: SANGER: Inhibition of human CP67-MEL cell growth in a cell viability assay. It is filed as functional, cell-based.

Molecules are shown by their SMILES.

Usually IC50 stands for the concentration at which inhibition is half-maximal. Read a high IC50 as a need for much substance.

In the case of `COc1cc(-c2nn([C@H]3CC[C@H](N4CCN(C(C)=O)CC4)CC3)c3ncnc(N)c23)ccc1NC(=O)c1cc2ccccc2n1C`, the IC50 in [1], in assay [2], in assay [3], in assay [4], in assay [5] and in [6] was above 5.12 µM each time. For the same compound, the IC50 in assay [7] was above 5.12 µM; in assay [8] it was 3.19 µM; in assay [9], above 5.12 µM.
Turning to `N[C@@H](CSC(c1ccccc1)(c1ccccc1)c1ccccc1)C(=O)O` [S-TRITYL-L-CYSTEINE], the IC50 in [1] is above 5.12 µM; in assay [2] it was above 5.12 µM; in assay [3], above 5.12 µM; in assay [4], 3.49 µM; in assay [5] it was above 5.12 µM; in assay [6], 0.606 µM. Moreover, the IC50 in assay [7] worked out at 2.09 µM; in assay [8], 0.889 µM; in [9], 2.39 µM.
Regarding `Cc1ccc(-c2c(C(=O)CCl)n(CCCO)c3ncnc(N)c23)cc1`, the IC50 in assay [1] is above 4 µM; in [2], above 4 µM; in [3] it was 2.51 µM; in assay [4], above 4 µM; in assay [5], above 4 µM; in assay [6], above 4 µM. Also, the IC50 in [7], in [8] and in assay [9] was above 4 µM each time.

For the origin of these results see ChEMBL document CHEMBL1201861, “Genomics of Drug Sensitity in Cancer screening data, Wellcome Trust Sanger Institute”.
